Literature values, collected in US9192673B2, “Fine dry particulate resveratrol active agent compositions and topical formulations including the same” (priority 2013, dated 2015).

Conditions: background statement

solubility in water and in lipophilic components: almost insoluble
Structure (SMILES): Oc1ccc(/C=C/c2cc(O)cc(O)c2)cc1 [resveratrol, 3,5,4′-trihydroxystilbene]
